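Interpolation was linear, between the two tested concentrations surrounding the appropriate level; five concentrations were tested over 48 hours in 96-well plates. TGI is the concentration that stops growth completely.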
Assays:
Experiment in all cases: NCI anticancer screen, dose series, 48 h
786-0 renal = test system: 786-0 renal
A549 NSCLC = test system: A549 NSCLC
ACHN renal = test system: ACHN renal
CCRF-CEM leukemia = test system: CCRF-CEM leukemia
COLO 205 colon = test system: COLO 205 colon
DLD-1 colon = test system: DLD-1 colon
DMS 273 small cell lung = test system: DMS 273 small cell lung
EKVX NSCLC = test system: EKVX NSCLC
HCC-2998 colon = test system: HCC-2998 colon
HCT-116 colon = test system: HCT-116 colon
HCT-15 colon = test system: HCT-15 colon
HL-60(TB) leukemia = test system: HL-60(TB) leukemia
HOP-62 NSCLC = test system: HOP-62 NSCLC
HOP-92 NSCLC = test system: HOP-92 NSCLC
HT29 colon = test system: HT29 colon
IGROV1 ovarian = test system: IGROV1 ovarian
K-562 leukemia = test system: K-562 leukemia
KM12 colon = test system: KM12 colon
KM20L2 colon = test system: KM20L2 colon
LOX IMVI melanoma = test system: LOX IMVI melanoma
LXFL 529 NSCLC = test system: LXFL 529 NSCLC
M14 melanoma = test system: M14 melanoma
M19-MEL melanoma = test system: M19-MEL melanoma
MALME-3M melanoma = test system: MALME-3M melanoma
MOLT-4 leukemia = test system: MOLT-4 leukemia
NCI-H226 lung = test system: NCI-H226 lung
NCI-H23 lung = test system: NCI-H23 lung
NCI-H460 lung = test system: NCI-H460 lung
NCI-H522 lung = test system: NCI-H522 lung
OVCAR-3 ovarian = test system: OVCAR-3 ovarian
OVCAR-4 ovarian = test system: OVCAR-4 ovarian
OVCAR-8 ovarian = test system: OVCAR-8 ovarian
RXF 393 renal = test system: RXF 393 renal
SF-268 CNS = test system: SF-268 CNS
SF-295 CNS = test system: SF-295 CNS
SF-539 CNS = test system: SF-539 CNS
SK-MEL-2 melanoma = test system: SK-MEL-2 melanoma
SK-MEL-28 melanoma = test system: SK-MEL-28 melanoma
SK-MEL-5 melanoma = test system: SK-MEL-5 melanoma
SK-OV-3 ovarian = test system: SK-OV-3 ovarian
SN12C renal = test system: SN12C renal
SNB-19 CNS = test system: SNB-19 CNS
SNB-75 CNS = test system: SNB-75 CNS
SNB-78 CNS = test system: SNB-78 CNS
SR leukemia = test system: SR leukemia
SW-620 colon = test system: SW-620 colon
TK-10 renal = test system: TK-10 renal
U251 CNS = test system: U251 CNS
UACC-257 melanoma = test system: UACC-257 melanoma
UACC-62 melanoma = test system: UACC-62 melanoma
UO-31 renal = test system: UO-31 renal
XF 498 CNS = test system: XF 498 CNS
A498 renal = test system: A498 renal
CAKI-1 renal = test system: CAKI-1 renal
DMS 114 small cell lung = test system: DMS 114 small cell lung
HOP-18 NSCLC = test system: HOP-18 NSCLC
RPMI-8226 leukemia = test system: RPMI-8226 leukemia

With `CCCCOP1(=O)CC(C)=C(Cl)C(C)(OC)C1` (stereo not drawn) the TGI (786-0 renal) was > 100 µM, the TGI (A549 NSCLC) was > 100 µM and the TGI (ACHN renal) was > 100 µM. For the same molecule, the TGI (CCRF-CEM leukemia) was 98.7 µM, the TGI (COLO 205 colon) was > 100 µM and the TGI (DLD-1 colon) was > 100 µM. For the same molecule, the TGI (DMS 273 small cell lung) was > 100 µM, the TGI (EKVX NSCLC) was > 100 µM and the TGI (HCC-2998 colon) was > 100 µM. For the same molecule, the TGI (HCT-116 colon) was > 100 µM, the TGI (HCT-15 colon) was > 100 µM and the TGI (HL-60(TB) leukemia) was 69 µM. For the same molecule, the TGI (HOP-62 NSCLC) was > 100 µM, the TGI (HOP-92 NSCLC) was > 100 µM and the TGI (HT29 colon) was > 100 µM. For the same molecule, the TGI (IGROV1 ovarian) was > 100 µM, the TGI (K-562 leukemia) was > 100 µM and the TGI (KM12 colon) was > 100 µM. The TGI (KM20L2 colon) was > 100 µM, the TGI (LOX IMVI melanoma) was > 100 µM and the TGI (LXFL 529 NSCLC) was > 100 µM. The TGI (M14 melanoma) was > 100 µM, the TGI (M19-MEL melanoma) was > 100 µM and the TGI (MALME-3M melanoma) was > 100 µM. For the same molecule, the TGI (MOLT-4 leukemia) was > 100 µM, the TGI (NCI-H226 lung) was > 100 µM and the TGI (NCI-H23 lung) was > 100 µM. The TGI (NCI-H460 lung) was > 100 µM, the TGI (NCI-H522 lung) was > 100 µM and the TGI (OVCAR-3 ovarian) was > 100 µM. For the same molecule, the TGI (OVCAR-4 ovarian) was > 100 µM, the TGI (OVCAR-8 ovarian) was > 100 µM and the TGI (RXF 393 renal) was > 100 µM. The TGI (SF-268 CNS) was > 100 µM, the TGI (SF-295 CNS) was > 100 µM and the TGI (SF-539 CNS) was > 100 µM. For the same molecule, the TGI (SK-MEL-2 melanoma) was > 100 µM, the TGI (SK-MEL-28 melanoma) was > 100 µM and the TGI (SK-MEL-5 melanoma) was > 100 µM. For the same molecule, the TGI (SK-OV-3 ovarian) was > 100 µM, the TGI (SN12C renal) was > 100 µM and the TGI (SNB-19 CNS) was > 100 µM. The TGI (SNB-75 CNS) was > 100 µM, the TGI (SNB-78 CNS) was > 100 µM and the TGI (SR leukemia) was 89.3 µM. For the same molecule, the TGI (SW-620 colon) was > 100 µM, the TGI (TK-10 renal) was > 100 µM and the TGI (U251 CNS) was > 100 µM. For the same molecule, the TGI (UACC-257 melanoma) was > 100 µM, the TGI (UACC-62 melanoma) was > 100 µM and the TGI (UO-31 renal) was > 100 µM. For the same molecule, the TGI (XF 498 CNS) was > 100 µM.
With `OC(CCl)CN1CC[N+]2(CC1)CC[N+]1(CCN(CC(O)CCl)CC1)CC2` (stereo not drawn) the TGI (786-0 renal) was > 50 µM, the TGI (A498 renal) was > 50 µM and the TGI (A549 NSCLC) was > 50 µM. The TGI (ACHN renal) was > 50 µM, the TGI (CAKI-1 renal) was > 50 µM and the TGI (CCRF-CEM leukemia) was > 50 µM. For the same molecule, the TGI (COLO 205 colon) was > 50 µM, the TGI (DMS 114 small cell lung) was > 50 µM and the TGI (DMS 273 small cell lung) was > 50 µM. The TGI (EKVX NSCLC) was > 50 µM, the TGI (HCC-2998 colon) was > 50 µM and the TGI (HCT-116 colon) was > 50 µM. The TGI (HCT-15 colon) was > 50 µM, the TGI (HL-60(TB) leukemia) was > 50 µM and the TGI (HOP-18 NSCLC) was > 50 µM. For the same molecule, the TGI (HOP-92 NSCLC) was > 50 µM, the TGI (HT29 colon) was > 50 µM and the TGI (IGROV1 ovarian) was > 50 µM. For the same molecule, the TGI (K-562 leukemia) was > 50 µM, the TGI (KM12 colon) was > 50 µM and the TGI (KM20L2 colon) was > 50 µM. The TGI (LXFL 529 NSCLC) was > 50 µM, the TGI (M14 melanoma) was > 50 µM and the TGI (M19-MEL melanoma) was > 50 µM. For the same molecule, the TGI (MALME-3M melanoma) was > 50 µM, the TGI (MOLT-4 leukemia) was > 50 µM and the TGI (NCI-H226 lung) was > 50 µM. For the same molecule, the TGI (NCI-H23 lung) was > 50 µM, the TGI (NCI-H460 lung) was > 50 µM and the TGI (NCI-H522 lung) was > 50 µM. For the same molecule, the TGI (OVCAR-3 ovarian) was > 50 µM, the TGI (OVCAR-4 ovarian) was > 50 µM and the TGI (OVCAR-8 ovarian) was > 50 µM. The TGI (RPMI-8226 leukemia) was > 50 µM, the TGI (RXF 393 renal) was > 50 µM and the TGI (SF-268 CNS) was > 50 µM. The TGI (SF-295 CNS) was > 50 µM, the TGI (SF-539 CNS) was > 50 µM and the TGI (SK-MEL-2 melanoma) was > 50 µM. The TGI (SK-MEL-28 melanoma) was > 50 µM, the TGI (SK-MEL-5 melanoma) was > 50 µM and the TGI (SK-OV-3 ovarian) was > 50 µM. For the same molecule, the TGI (SN12C renal) was > 50 µM, the TGI (SNB-19 CNS) was > 50 µM and the TGI (SNB-75 CNS) was > 50 µM. For the same molecule, the TGI (SR leukemia) was > 50 µM, the TGI (SW-620 colon) was > 50 µM and the TGI (TK-10 renal) was > 50 µM. The TGI (U251 CNS) was > 50 µM, the TGI (UO-31 renal) was > 50 µM and the TGI (XF 498 CNS) was > 50 µM.

Source: PubChem BioAssay (NCI)
